Data reported in ChEMBL document CHEMBL1201862, “PubChem BioAssay data set” (2004).
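Cultured in 96-well plates, cells were exposed to test compound for 48 hours across five concentrations. GI50 is the concentration that inhibits growth by half.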 Calls of active or inactive are those of the source. Cut-off read from the data, not from the text of the source: active = GI50 up to about 1.1 µM and inactive = higher.

Columns and labels:
Assay in all cases: DTP human tumour cell line panel, 48 h
[1] = test system: SNB-78
[2] = test system: SK-MEL-5
[3] = test system: EKVX
[4] = test system: U-251
[5] = test system: SK-OV-3
[6] = test system: PC-3
[7] = test system: HOP-18
[8] = test system: NCI-H226
[9] = test system: DMS-114
[10] = test system: OVCAR-4
[11] = test system: CCRF-CEM
[12] = test system: MDA-MB-435
[13] = test system: ACHN
[14] = test system: KM12
[15] = test system: UO-31
[16] = test system: 786-0
[17] = test system: A498
[18] = test system: OVCAR-3
[19] = test system: XF498
[20] = test system: HT-29
[21] = test system: IGROV-1
[22] = test system: M14
[23] = test system: UACC-257
[24] = test system: CAKI-1
[25] = test system: OVCAR-5
[26] = test system: SF-539
[27] = test system: RXF 393
[28] = test system: Malme-3M
[29] = test system: K562
[30] = test system: NCI-H522
[31] = test system: SK-MEL-28
[32] = test system: DU-145
[33] = test system: LXFL 529
[34] = test system: SNB-19
[35] = test system: MDA-MB-231
[36] = test system: HCT-116
[37] = test system: MCF7
[38] = test system: RXF 631
[39] = test system: NCI/ADR-RES
[40] = test system: M19-MEL
[41] = test system: COLO 205
[42] = test system: T47D
[43] = test system: NCI-H460
[44] = test system: RPMI-8226
[45] = test system: SF-268
[46] = test system: Hs-578T
[47] = test system: BT-549
[48] = test system: A549
[49] = test system: KM-20L2
[50] = test system: SK-MEL-2
[51] = test system: HOP-62
[52] = test system: UACC-62
[53] = test system: OVCAR-8
[54] = test system: SF-295
[55] = test system: HCC 2998
[56] = test system: HL-60
[57] = test system: SN12C
[58] = test system: LOX IMVI
[59] = test system: HCT-15
[60] = test system: HOP-92
[61] = test system: SW-620
[62] = test system: SNB-75
[63] = test system: SR
[64] = test system: MOLT-4
[65] = test system: NCI-H23
[66] = test system: DLD-1
[67] = test system: TK-10
[68] = test system: MDA-N
[69] = test system: DMS-273

With `CCCCCCCCCCCCCCCCCCN(C)CC(COP(=O)([O-])OCC[N+](C)(C)C)OC` (configuration not stated) the GI50 [1] was 6.32 µM (inactive), the GI50 [2] was 27.9 µM (inactive) and the GI50 [3] was 26.9 µM (inactive). The GI50 [4] was 4.9 µM (inactive), the GI50 [5] was 14.1 µM (inactive) and the GI50 [6] was 18.1 µM (inactive). For the same molecule, the GI50 [7] was 17.3 µM (inactive), the GI50 [8] was 16.5 µM (inactive) and the GI50 [9] was 6.76 µM (inactive). For the same molecule, the GI50 [10] was 8.09 µM (inactive), the GI50 [11] was 5.4 µM (inactive) and the GI50 [12] was > 46.9 µM (inactive). The GI50 [13] was 22.6 µM (inactive), the GI50 [14] was 3.52 µM (inactive) and the GI50 [15] was 29.5 µM (inactive). For the same molecule, the GI50 [16] was 6.89 µM (inactive), the GI50 [17] was 13.6 µM (inactive) and the GI50 [18] was 28.6 µM (inactive). The GI50 [19] was 14 µM (inactive), the GI50 [20] was 4.94 µM (inactive) and the GI50 [21] was 3.1 µM (inactive). For the same molecule, the GI50 [22] was 9.84 µM (inactive), the GI50 [23] was 35.3 µM (inactive) and the GI50 [24] was 5.27 µM (inactive). The GI50 [25] was 4.51 µM (inactive), the GI50 [26] was 16.7 µM (inactive) and the GI50 [27] was 3.4 µM (inactive). The GI50 [28] was 26.7 µM (inactive), the GI50 [29] was 18.8 µM (inactive) and the GI50 [30] was 9.51 µM (inactive). For the same molecule, the GI50 [31] was 38.3 µM (inactive), the GI50 [32] was 31.5 µM (inactive) and the GI50 [33] was 8.67 µM (inactive). For the same molecule, the GI50 [34] was 7.29 µM (inactive), the GI50 [35] was 57.1 µM (inactive) and the GI50 [36] was 15.5 µM (inactive). The GI50 [37] was 29.4 µM (inactive), the GI50 [38] was 16.2 µM (inactive) and the GI50 [39] was > 64 µM (inactive). For the same molecule, the GI50 [40] was 4.21 µM (inactive), the GI50 [41] was 2.91 µM (inactive) and the GI50 [42] was > 80.7 µM (inactive). For the same molecule, the GI50 [43] was 4.25 µM (inactive), the GI50 [44] was 6.03 µM (inactive) and the GI50 [45] was 8.17 µM (inactive). The GI50 [46] was > 46.1 µM (inactive), the GI50 [47] was 38.5 µM (inactive) and the GI50 [48] was 22.8 µM (inactive). For the same molecule, the GI50 [49] was 1.91 µM (inactive), the GI50 [50] was 38.5 µM (inactive) and the GI50 [51] was 9.38 µM (inactive). The GI50 [52] was 11.2 µM (inactive), the GI50 [53] was 26.6 µM (inactive) and the GI50 [54] was 7.83 µM (inactive). The GI50 [55] was 6.75 µM (inactive), the GI50 [56] was 3.66 µM (inactive) and the GI50 [57] was 27.4 µM (inactive). For the same molecule, the GI50 [58] was 10 µM (inactive), the GI50 [59] was 7.67 µM and the GI50 [60] was 9.77 µM (inactive). For the same molecule, the GI50 [61] was 17.5 µM (inactive), the GI50 [62] was 5.93 µM (inactive) and the GI50 [63] was 2.44 µM (inactive). The GI50 [64] was 3.94 µM (inactive), the GI50 [65] was 20.2 µM (inactive) and the GI50 [66] was 5.14 µM (inactive). The GI50 [67] was 3.32 µM (inactive), the GI50 [68] was > 100 µM (inactive) and the GI50 [69] was 1.95 µM (inactive).

In the case of `COC(=O)CC1CC2(C(=O)OC)c3[nH]c4ccccc4c3CCN2C1=O` (configuration not stated), the GI50 [1] is reported as > 100 µM (inactive), the GI50 [2] is reported as > 100 µM (inactive) and the GI50 [3] is reported as > 100 µM (inactive). For the same molecule, the GI50 [4] was > 100 µM (inactive), the GI50 [5] was > 100 µM (inactive) and the GI50 [7] was > 100 µM (inactive). The GI50 [8] was > 100 µM (inactive), the GI50 [9] was > 100 µM (inactive) and the GI50 [10] was > 100 µM (inactive). The GI50 [11] was > 100 µM (inactive), the GI50 [13] was > 100 µM (inactive) and the GI50 [14] was > 100 µM (inactive). The GI50 [15] was > 100 µM (inactive), the GI50 [16] was > 100 µM (inactive) and the GI50 [17] was > 100 µM (inactive). The GI50 [18] was > 100 µM (inactive), the GI50 [19] was > 100 µM (inactive) and the GI50 [20] was > 100 µM (inactive). The GI50 [21] was > 100 µM (inactive), the GI50 [22] was > 100 µM (inactive) and the GI50 [23] was > 100 µM (inactive). The GI50 [24] was > 100 µM (inactive), the GI50 [25] was > 100 µM (inactive) and the GI50 [26] was > 100 µM (inactive). The GI50 [27] was > 100 µM (inactive), the GI50 [28] was > 100 µM (inactive) and the GI50 [29] was > 100 µM (inactive). For the same molecule, the GI50 [30] was > 100 µM (inactive), the GI50 [31] was > 100 µM (inactive) and the GI50 [33] was > 100 µM (inactive). For the same molecule, the GI50 [34] was > 100 µM (inactive), the GI50 [36] was > 100 µM (inactive) and the GI50 [38] was 17.5 µM (inactive). For the same molecule, the GI50 [40] was > 100 µM (inactive), the GI50 [41] was > 100 µM (inactive) and the GI50 [43] was > 100 µM (inactive). For the same molecule, the GI50 [45] was > 100 µM (inactive), the GI50 [48] was > 100 µM (inactive) and the GI50 [49] was > 100 µM (inactive). The GI50 [50] was > 100 µM (inactive), the GI50 [51] was > 100 µM (inactive) and the GI50 [52] was > 100 µM (inactive). For the same molecule, the GI50 [53] was > 100 µM (inactive), the GI50 [54] was > 100 µM (inactive) and the GI50 [55] was > 100 µM (inactive). The GI50 [56] was > 100 µM (inactive), the GI50 [57] was > 100 µM (inactive) and the GI50 [58] was > 100 µM (inactive). For the same molecule, the GI50 [59] was greater than 100 µM, the GI50 [60] was > 100 µM (inactive) and the GI50 [61] was > 100 µM (inactive). For the same molecule, the GI50 [62] was > 100 µM (inactive), the GI50 [63] was > 100 µM (inactive) and the GI50 [64] was > 100 µM (inactive). For the same molecule, the GI50 [65] was > 100 µM (inactive), the GI50 [66] was > 100 µM (inactive) and the GI50 [67] was > 100 µM (inactive). The GI50 [69] was > 100 µM (inactive).
